Experimental data published in publication doi:10.1101/2025.07.18.665579v1 (biorxiv, 2025).
Residue numbers refer to the chain shown, from its start.

What was measured:
Assay in all cases: microscale thermophoresis
Assay type in all cases: binding
SbXXT (Sb2G401600) [1] = molecular target: T1, SbXXT (Sb2G401600) (Sorghum bicolor, UniProt C5X460, Y462F)
T1 sequence (C5X460 93-554 Y462F): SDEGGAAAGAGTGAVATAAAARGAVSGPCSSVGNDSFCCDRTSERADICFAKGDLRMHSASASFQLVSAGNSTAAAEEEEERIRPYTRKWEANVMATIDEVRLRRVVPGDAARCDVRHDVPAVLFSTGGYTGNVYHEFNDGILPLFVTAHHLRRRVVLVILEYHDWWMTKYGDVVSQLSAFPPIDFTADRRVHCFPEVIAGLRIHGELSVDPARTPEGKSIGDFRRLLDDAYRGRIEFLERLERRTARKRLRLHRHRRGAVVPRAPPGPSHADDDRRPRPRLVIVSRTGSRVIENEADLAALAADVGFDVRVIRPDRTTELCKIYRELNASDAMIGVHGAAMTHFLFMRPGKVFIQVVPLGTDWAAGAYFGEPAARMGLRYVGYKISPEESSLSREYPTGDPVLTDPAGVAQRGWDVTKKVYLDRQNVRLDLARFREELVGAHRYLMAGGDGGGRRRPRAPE

SbXXT (Sb2G401600) [2] = molecular target: T2, SbXXT (Sb2G401600) (Sorghum bicolor, UniProt C5X460)
T2 sequence (C5X460 93-554): T1 sequence (C5X460 93-554 Y462F) with F370Y

SbXAT (Sb3G094600) [3] = molecular target: SbXAT (Sb3G094600) (Sorghum bicolor, UniProt A0A1B6Q2C2)
SbXAT (Sb3G094600) (Sorghum bicolor, UniProt A0A1B6Q2C2), sequence (A0A1B6Q2C2 198-685): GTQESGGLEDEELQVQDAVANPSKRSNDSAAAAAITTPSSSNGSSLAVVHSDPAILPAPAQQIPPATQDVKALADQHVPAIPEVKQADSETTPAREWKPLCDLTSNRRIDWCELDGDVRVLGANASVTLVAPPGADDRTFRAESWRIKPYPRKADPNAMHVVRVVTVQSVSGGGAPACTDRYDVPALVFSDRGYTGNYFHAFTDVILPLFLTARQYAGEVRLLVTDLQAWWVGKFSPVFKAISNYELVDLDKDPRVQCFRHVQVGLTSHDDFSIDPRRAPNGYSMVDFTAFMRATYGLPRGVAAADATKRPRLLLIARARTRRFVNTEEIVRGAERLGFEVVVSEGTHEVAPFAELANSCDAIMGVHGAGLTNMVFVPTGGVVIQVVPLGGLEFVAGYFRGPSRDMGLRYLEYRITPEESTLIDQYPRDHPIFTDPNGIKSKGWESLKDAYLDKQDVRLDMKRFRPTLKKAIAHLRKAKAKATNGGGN

SbXAT (Sb3G094600) [4] = molecular target: SbXAT (Sb3G094600) (Sorghum bicolor, UniProt A0A1B6Q2C2, F596Y)
SbXAT (Sb3G094600) (Sorghum bicolor, UniProt A0A1B6Q2C2, F596Y), sequence (A0A1B6Q2C2 198-685 F596Y): as the sequence (A0A1B6Q2C2 198-685) above, with F399Y counted along it

Kd (SbXXT (Sb2G401600) [1]) [µM]	Kd (SbXXT (Sb2G401600) [2]) [µM]	Kd (SbXAT (Sb3G094600) [3]) [µM]	Kd (SbXAT (Sb3G094600) [4]) [µM]	SMILES
19	26	244	531	O=c1ccn([C@@H]2O[C@H](COP(=O)(O)OP(=O)(O)O[C@H]3O[C@@H](CO)[C@H](O)[C@H]3O)[C@@H](O)[C@H]2O)c(=O)[nH]1 [UDP-Araf]
15	13	373	221	O=c1ccn([C@@H]2O[C@H](COP(=O)(O)OP(=O)(O)O[C@H]3OC[C@@H](O)[C@H](O)[C@H]3O)[C@@H](O)[C@H]2O)c(=O)[nH]1 [UDP-Xyl]
